In patent US20230098667A1, “BENZODIAZEPINE DERIVATIVES, COMPOSITIONS, AND METHODS FOR TREATING COGNITIVE IMPAIRMENT” (priority 2019, published 2023):
“Also recorded” adds a separate entry of the source. Like-named read-outs stand apart in the source and are kept apart here.

Columns and labels:
[1] = molecular target: T1, GABAA receptors α5β3γ2 (GABA α5) (Homo sapiens, UniProt P18507+P31644); assay: Binding activity on GABAAR: inhibition of [3H]Ro15-1788 binding, membranes of Ltk cells; settings: α5β3γ2 Ltk cell membranes
T1 construct: membranes
T1 sequence (P31644 32-462): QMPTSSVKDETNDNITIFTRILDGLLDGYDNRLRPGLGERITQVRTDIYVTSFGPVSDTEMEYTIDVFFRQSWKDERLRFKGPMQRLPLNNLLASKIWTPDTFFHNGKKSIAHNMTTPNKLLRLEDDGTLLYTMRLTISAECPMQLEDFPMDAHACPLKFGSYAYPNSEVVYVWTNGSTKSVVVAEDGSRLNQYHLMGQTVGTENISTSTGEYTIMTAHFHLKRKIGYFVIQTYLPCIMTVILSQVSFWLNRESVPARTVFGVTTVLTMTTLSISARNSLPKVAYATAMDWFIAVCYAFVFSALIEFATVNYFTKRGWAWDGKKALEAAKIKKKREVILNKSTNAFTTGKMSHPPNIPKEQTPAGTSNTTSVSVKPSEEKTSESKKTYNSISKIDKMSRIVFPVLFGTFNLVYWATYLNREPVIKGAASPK
T1 sequence (P28472 26-473 partner): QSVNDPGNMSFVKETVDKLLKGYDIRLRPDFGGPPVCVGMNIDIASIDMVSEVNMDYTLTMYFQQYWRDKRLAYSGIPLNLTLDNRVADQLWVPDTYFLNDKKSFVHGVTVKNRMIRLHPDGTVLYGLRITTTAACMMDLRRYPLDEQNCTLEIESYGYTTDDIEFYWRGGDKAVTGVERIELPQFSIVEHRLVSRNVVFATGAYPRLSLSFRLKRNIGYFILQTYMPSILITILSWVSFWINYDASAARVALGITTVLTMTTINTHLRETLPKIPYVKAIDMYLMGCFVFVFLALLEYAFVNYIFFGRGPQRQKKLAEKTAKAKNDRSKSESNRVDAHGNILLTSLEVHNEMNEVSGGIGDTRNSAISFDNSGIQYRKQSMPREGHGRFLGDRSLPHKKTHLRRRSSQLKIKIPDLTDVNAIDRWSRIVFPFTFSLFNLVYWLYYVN
T1 sequence (P18507 40-467 limits assumed): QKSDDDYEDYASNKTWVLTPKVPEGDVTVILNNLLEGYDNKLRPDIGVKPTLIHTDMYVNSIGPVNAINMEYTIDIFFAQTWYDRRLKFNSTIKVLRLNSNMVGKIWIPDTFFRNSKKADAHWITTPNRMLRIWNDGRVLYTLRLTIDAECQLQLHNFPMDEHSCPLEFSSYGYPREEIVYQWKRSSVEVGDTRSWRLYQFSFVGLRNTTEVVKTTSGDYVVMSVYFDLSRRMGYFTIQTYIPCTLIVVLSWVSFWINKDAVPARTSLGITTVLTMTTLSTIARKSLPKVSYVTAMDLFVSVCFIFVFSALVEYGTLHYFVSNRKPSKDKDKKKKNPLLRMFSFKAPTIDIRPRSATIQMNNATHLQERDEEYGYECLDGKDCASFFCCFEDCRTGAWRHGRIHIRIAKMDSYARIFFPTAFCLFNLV
Method: (§1) Tissue culture and Membrane Preparation: The binding was performed on Ltk cells stably expressing GABAA receptors: α1β1γ2, α2β3γ2, α3β3γ2 and α5β3γ2 (provided by Merck Co., NJ, USA). Cells were seeded in 100 mm culture plates in DMEM/F12 medium containing 10% serum and antibiotics in 5% CO2 and allowed to grow for 1-2 days. GABAAR expression was then induced by dexamethasone as follows: 0.5 μM for 1 day for α5 containing and 2 μM for 3 days for α1, α2 and α3 containing GABAARs. After induction, cells were collected by scraping into Dulbecco's Phosphate buffered saline (DPBS, pH 7.4, Invitrogen, Carlsbad, Calif., USA) and centrifuged at 150×g for 10 min. The pellet was washed twice by re-suspension and centrifugation. The cell pellets from at least 5 different preps were combined, suspended in the binding assay buffer (50 mM KH2PO4; 1 mM EDTA; 0.2 M KCl, pH 7.4) and membranes prepared by sonication (3-5 times, 30 sec) using Branson Sonifier 150 (G. Heinmann, Germany). Protein content was determined using BCA assay (Bio-Rad Labs, Reinach, Switzerland) with Bovine Serum Albumin (Sigma Aldrich, St. Louis, Mo., USA) as the standard. Aliquots were prepared and stored at −20° C. for further use in binding assays.
(§2) Ligand Binding: Saturation binding curves were obtained by incubating membranes with increasing concentrations (0.01-8 nM) of [^3H]Rol5-1788 (Flumazepil, 75-85 Ci/mmol, PerkinElmer, MA, USA), with nonspecific binding measured in the presence of 10 μM diazepam.
All binding assays were performed for 1 h at 4° C. in assay buffer. The total assay volume was 0.5 ml containing 0.2 mg/ml protein for α5 and 0.4 mg/ml for α1, α2, and α3 containing GABAAR membranes. Incubations were terminated by filtration through GF/B filters using a 24-Cell Harvestor (Brandel, Gaithersburg, Md., USA) followed by 3 washes with ice-cold assay buffer. Filters were transferred to scintillation vials, 5 ml scintillation liquid added, vortex-mixed and kept in dark. Next day, radioactivity was obtained using a scintillation counter (Beckman Coulter, Brea, Calif., USA). All assays were performed in triplicate.
Data Analyses: Saturation and inhibition curves were obtained using GraphPad Prism software (GraphPad Software, Inc., CA, USA).

[2] = tested on: GABA α5 versus GABA α1, GABA α2, or GABA α3; assay: Binding selectivity from [3H]Ro15-1788 binding on GABAAR subtypes
Method: as §1, with “The cell pellets from at least 5 different preps were combined, suspended in the binding assay buffer (50 mM KH2PO4; 1 mM EDTA; 0.2 M KCl, pH 7.4) and membranes prepared by sonication (3-5 times, 30 sec) using Branson Sonifier 150 (G. Heinmann, Germany).” left out, “Aliquots were prepared and stored at −20° C. for further use in binding assays.” left out
as §2
All binding assays were performed for 1 h at 4° C. in assay buffer. […] Next day, radioactivity was obtained using a scintillation counter (Beckman Coulter, Brea, Calif., USA). […]

[3] = molecular target: T2, GABAA receptors (α5β2γ2) (Homo sapiens, UniProt P18507+P31644); assay: Positive allosteric modulator activity: potentiation of EC20 GABA current in oocytes; assay type: cell-based; settings: @ 100 nM
T2 construct: expressed in transfected cells
T2 sequence (P31644 32-462): T1 sequence (P31644 32-462)
T2 sequence (P47870 25-512 partner limits assumed): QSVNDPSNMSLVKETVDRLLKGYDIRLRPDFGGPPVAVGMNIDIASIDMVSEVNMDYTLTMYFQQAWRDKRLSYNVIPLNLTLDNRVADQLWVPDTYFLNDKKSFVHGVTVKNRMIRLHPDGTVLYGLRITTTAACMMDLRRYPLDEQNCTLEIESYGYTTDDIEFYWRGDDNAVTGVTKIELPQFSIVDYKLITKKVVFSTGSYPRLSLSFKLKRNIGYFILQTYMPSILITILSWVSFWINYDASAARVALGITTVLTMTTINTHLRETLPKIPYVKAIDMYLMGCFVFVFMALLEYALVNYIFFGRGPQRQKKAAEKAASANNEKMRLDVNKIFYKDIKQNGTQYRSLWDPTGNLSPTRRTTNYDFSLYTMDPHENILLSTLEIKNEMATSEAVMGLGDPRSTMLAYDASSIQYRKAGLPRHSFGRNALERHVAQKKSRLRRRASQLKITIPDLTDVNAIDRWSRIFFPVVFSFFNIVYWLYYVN
T2 sequence (P18507 40-467 limits assumed): T1 sequence (P18507 40-467 limits assumed)
Method: On day 1, 1 ng/32 nL of GABAA α5β2γ2 cDNA was injected into one oocyte. Test starts on day 2. The cDNA injected to the oocytes was a mix of alpha, beta and gamma, their ratio is 1:1:10 (by weight) and the total weight of the mixed 3 subunits to be injected in one oocyte was 1 ng in 32 nl volume. The injected oocytes can also be tested on day 3. In such case, the cDNA amount injected to the oocytes should be reduced by 20%.
1). 8 oocytes were placed in 8 chambers of OpusXpress and superfused with Modified Barth's Saline (MBS) at 3 mL/min. Glass electrodes back-filled with 3M KCl (0.5-3 megaohms) were used. […] 2). […] 3).
1). New oocytes were used to run new test. 2). […] 3). […] Oocytes were washed with MBS for 5-10 min. 4). […] Itest was divided by IGABA to obtain potentiation (%).
1). Repeat the above steps 1), 2) and 3) in the control test. 2). […] Divide Itest by IGABA to obtain potentiation (%). 3). Discard all tested oocytes, new oocytes were used and the above steps 1) and 2) were repeated to test second concentration of the same compound. Each oocyte was used for only one concentration test for a single test compound. The steps were repeated for other test compounds.

[4] = tested on: aged-impaired (AI) rats; assay: Radial Arm Maze (RAM) behavioral task, two-hour delay; assay type: in vivo, rat; settings: 3 mg/kg ip
Method: The effects of methyl 3,5-diphenylpyridazine-4-carboxylate on the in vivo spatial memory retention of aged-impaired (AI) rats were assessed in a Radial Arm Maze (RAM) behavioral task using vehicle control and four different dosage levels of methyl 3,5-diphenylpyridazine-4-carboxylate (0.1 mg/kg, 0.3 mg/kg, 1 mg/kg and 3 mg/kg, ip). RAM behavioral tasks were performed on eight AI rats. All five treatment conditions (vehicle and four dosage levels) were tested on all eight rats.
The RAM apparatus used consisted of eight equidistantly-spaced arms. An elevated maze arm (7 cm width×75 cm length) projected from each facet of an octagonal center platform (30 cm diameter, 51.5 cm height). Clear side walls on the arms were 10 cm high and were angled at […] to form a trough. A food well (4 cm diameter, 2 cm deep) was located at the distal end of each arm. Froot Loops™ (Kellogg Company) were used as rewards. Blocks constructed of Plexiglas™ (30 cm height×12 cm width) could be positioned to prevent entry to any arm. Numerous extra maze cues surrounding the apparatus were also provided.
The AI rats were initially subjected to a pre-training test (Chappell et al. Neuropharmacology 37: 481-487, 1998). […]

[5] = molecular target: T3, GABAA α5 receptor (Rattus norvegicus, UniProt P19969); assay: GABAA α5 receptor occupancy with Ro 15-4513 tracer; assay type: in vivo, Long Evans rats
T3 construct: from tissue; host or cells: brain of living Long Evans rats; hippocampus and cerebellum dissected after i.v. dosing
Description: (§3) Food and water were available ad libitum.

[6] = assay type: in vivo, Long Evans rats
Method: as §3
For plasma exposures, blood samples were centrifuged at 14000 rpm for 16 minutes. After centrifuging, 50 ul of supernatant (plasma) from each sample was added to 200 μl of acetonitrile plus 0.1% formic acid. […] Samples were sonicated for 5 minutes in an ultrasonic water bath, followed by centrifugation for 30 minutes, at 16000 RPM. 100 ul of supernatant was removed from each sample vial and placed in a new glass auto sample vial, followed by the addition of 300 μl of sterile water (pH 6.5).
Additional studies were conducted in aged Long-Evans rats in order to determine the exposures at the behaviorally relevant doses in the cognition studies. Exposure in young Long-Evans rats was also determined to bridge with the receptor occupancy studies that were conducted in young Long-Evans rats. Exposures in young and aged Long-Evans rats were relatively similar (Table 4, FIG. 4).

[7] = molecular target: T4, α5-containing GABAA R (Homo sapiens, UniProt P18507+P31644); settings: cited from earlier work
T4 sequence (P31644 32-462): T1 sequence (P31644 32-462)
T4 sequence (P28472 26-473 partner): T1 sequence (P28472 26-473 partner)
T4 sequence (P18507 40-467 limits assumed): T1 sequence (P18507 40-467 limits assumed)

T3 sequence (P19969 32-464 limits assumed): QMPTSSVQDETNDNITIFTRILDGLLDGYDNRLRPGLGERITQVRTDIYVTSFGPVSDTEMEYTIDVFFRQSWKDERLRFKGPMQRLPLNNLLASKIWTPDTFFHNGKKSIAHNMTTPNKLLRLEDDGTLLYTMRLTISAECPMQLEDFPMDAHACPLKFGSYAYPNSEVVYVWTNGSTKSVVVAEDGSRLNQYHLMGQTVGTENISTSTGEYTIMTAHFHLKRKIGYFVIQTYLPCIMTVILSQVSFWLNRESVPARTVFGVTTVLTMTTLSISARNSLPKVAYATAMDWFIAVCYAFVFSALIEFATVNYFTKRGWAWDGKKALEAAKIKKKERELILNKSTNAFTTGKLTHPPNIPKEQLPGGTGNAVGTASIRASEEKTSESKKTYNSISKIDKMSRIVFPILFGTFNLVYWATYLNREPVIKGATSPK

| Structure (SMILES) | Ki [1] [nM] | Binding selectivity for GABA α5 versus GABA α1, GABA α2, or GABA α3 [2] | GABA α5 functional potentiation [3] [% @ 100 nM] | average no. of errors ± SEM in retention test [4] | memory performance relative to vehicle control [4] | effect on Ro 15-4513 binding in hippocampus and cerebellum ([5]; 0.01-10 mg/kg, i.v.) | GABAA α5 receptors occupied in hippocampus ([5]; at exposures behaviorally active in aged-impaired rats) | receptor occupancy depending on method ([5]; exposure of 180 ng/g in hippocampus (1 mg/kg, i.v.)) | ED50 of receptor occupancy, ratio method ([5]; i.v., ratio method) [mg/kg] | receptor occupancy at 10 mg/kg ([5]; rat, iv, 10 mg/kg) [%] | increase in hippocampal exposure ([6]; dose from 0.1 to 1 mg/kg, i.v.) [fold] | increase in exposure in hippocampus and plasma ([6]; dose from 1 to 3 mg/kg, ip, young and aged rats) [fold] | increase in hippocampal exposure ([6]; dose from 1 to 10 mg/kg, i.v.) [fold] | increase in plasma exposure ([6]; dose from 1 to 10 mg/kg, i.v.) [fold] | α5 in vitro efficacy (EC20) [7] |
| --- | --- | --- | --- | --- | --- | --- | --- | --- | --- | --- | --- | --- | --- | --- | --- |
| COc1ncc(C#Cc2ncn3c2Cc2cnnn2-c2cc(Cl)ccc2-3)cc1C(F)(F)F [Compound 733] | < 100 | >100-fold |  |  |  |  |  |  |  |  |  |  |  |  |  |
| COCc1nnn2c1Cc1c(C#Cc3cnc(C)[nH]3)ncn1-c1ccc(Cl)cc1-2 [Compound 739] | < 100 |  | >50 |  |  |  |  |  |  |  |  |  |  |  |  |
| COC(=O)c1c(-c2ccccc2)cnnc1-c1ccccc1 [methyl 3,5-diphenylpyridazine-4-carboxylate] |  |  |  | 1.31±0.40 | significantly improved memory performance | blocked the binding of Ro154513 in the hippocampus but did not affect binding of Ro15413 in the cerebellum; also recorded: dose-dependently reduced Ro 15-4513 binding in hippocampus, without affecting cerebellum levels of Ro 15-4513 | about 32% | 32-39% | 1.8 | > 90 | 12 | 4.5 to 6.6 | ~5 | 12 | +27 |
